Results as given in PubChem BioAssay (NCI).
Values joined by “and” are separate entries in the source; they are usually repeats but may differ in a detail not shown here. Equal values may be shown once.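 96-well plates; 48 h exposure; 5 concentrations. Endpoints by linear interpolation between flanking doses. Not reached: highest tested concentration assigned. GI50 = concentration required for 50% inhibition of growth. At the TGI there is no net growth.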

Experiments:
Experiment in all cases: NCI-60 cell line screen, 48 h
786-0 renal = tested on: 786-0 renal
A498 renal = tested on: A498 renal
A549 NSCLC = tested on: A549 NSCLC
ACHN renal = tested on: ACHN renal
HCC-2998 colon = tested on: HCC-2998 colon
HT29 colon = tested on: HT29 colon
LOX IMVI melanoma = tested on: LOX IMVI melanoma
SK-MEL-2 melanoma = tested on: SK-MEL-2 melanoma
SW-620 colon = tested on: SW-620 colon
TK-10 renal = tested on: TK-10 renal

SMILES	GI50 (786-0 renal) [µM]	TGI (786-0 renal)	GI50 (A498 renal) [µM]	TGI (A498 renal) [µM]	GI50 (A549 NSCLC) [µM]	TGI (A549 NSCLC)	GI50 (ACHN renal) [µM]	TGI (ACHN renal)	GI50 (HCC-2998 colon) [µM]	TGI (HCC-2998 colon)	GI50 (HT29 colon) [µM]	TGI (HT29 colon) [µM]	GI50 (LOX IMVI melanoma) [µM]	TGI (LOX IMVI melanoma) [µM]	GI50 (SK-MEL-2 melanoma) [µM]	TGI (SK-MEL-2 melanoma)	GI50 (SW-620 colon) [µM]	TGI (SW-620 colon) [µM]	GI50 (TK-10 renal) [µM]	TGI (TK-10 renal) [µM]
CCCCNC(=O)NS(=O)(=O)c1ccc(N2N=C(c3cc(C)ccc3C)CC2c2cc(OC)c(OC)c(OC)c2)cc1 (stereo unspecified)	3.51	16.1 µM	2.31	6.01	2.53	9.78 µM	3.69	12.5 µM	2.32	4.84 µM	2.42	5.04	2.24	4.75	2.2	4.84 µM	3.26	12.8	3.44	10.7
Nc1cc(N)c2nc(-c3ccccc3)c(NCc3ccc(F)cc3)nc2c1	23.7	62.2 µM	16.8	31	17.6	34.9 µM	1.71	3.11 µM			3.19	12.5	1.52	3.17	5.21	> 100 µM	2.21	9.52	5.83	19.8
O=c1[nH]c(-c2ccc(-c3nc4cc([N+](=O)[O-])ccc4c(=O)[nH]3)cc2)nc2cc([N+](=O)[O-])ccc12		> 100 µM		31.3		> 100 µM		> 100 µM		> 100 µM		> 100		> 100		> 100 µM		> 100		> 100
C/C=C/[C@@H]1OC(=O)C2=C[C@@H](O)[C@@H](/C=C/C)O[C@H]21	2.53	8.36 µM			15.8	34 µM	2.34	8.01 µM	28.3	55 µM	2.09	5.89	6.44	18.5	23.5	> 58.6 µM	0.989	3.13	1.96	7.04
CC(C)c1ccc(Nc2nccc(-c3cnn4ncccc34)n2)cc1	0.801	4.88 µM	0.542	1.48	0.6	3.65 µM	0.189	> 10.3 µM	0.635	> 10.2 µM	0.6	3.24	0.209	> 7.75	0.411	1.13 µM	0.516	9.07	0.59	3.17
CCOC(=O)C1=C(Nc2cccc3ccccc23)OC/C1=N\NC(=O)c1ccccc1O		> 100 µM		70.6		> 100 µM		> 100 µM		> 100 µM		> 88.5		> 72.5		> 100 µM		> 100		> 100
O=C(Nc1nc(=S)c2c(ncn2CCO)[nH]1)c1ccccc1		> 100 µM		> 100		> 100 µM		> 100 µM				> 100		> 100		> 100 µM		> 100		> 100
Cc1c(Cl)cccc1NC1=C(Cl)C(=O)N(Cc2ccccc2)C1=O	1.9	11 µM	11.7	24.8	12	29.6 µM	1.29	8.92 µM	3.12	13.6 µM			4.83	47.8	27.5	89.9 µM			2.87	15.3
C=CCC(OCCOCC)c1cc(OCCOCC)ccc1OC (stereo unspecified)		> 100 µM				> 100 µM		> 100 µM		> 100 µM		> 100		> 100		> 100 µM		> 100		> 100
CCCC(Sc1ccccc1)P(=O)(c1ccccc1)c1ccccc1 (stereo unspecified)		> 100 µM		> 100		> 100 µM		61.4 µM						> 100				> 100		> 100
COC(=O)c1cc(-c2cccn2C)c2c(c1C(=O)OC)c1ccccc1n2C		> 100 µM				> 100 µM		> 100 µM		> 100 µM		> 100		> 100		> 100 µM		> 100		> 100
CCC1CCc2c(OC)ccc(OCC(=O)O)c2C1=O (stereo unspecified)		> 100 µM				> 100 µM		> 100 µM		> 100 µM				> 100		> 100 µM		> 100		> 100
CCOC(=O)c1nc(Nc2ccc(Cl)cc2)c2ccccc2n1	10.4	21.4 µM			11.3	26.2 µM	9.3	19.2 µM	8.46	15.6 µM			9.92	18.6	13.2	30.4 µM	17.2	> 50	8.11	19.3
Clc1nc(Cl)c(-c2ccccc2)c(Cl)n1		6.55 µM		30.1		36.1 µM				5.32 µM		49.3		3.73				5.34		22.2
C=C1CCC2[C@@H](CCC3[C@]2(C)CCC[C@]3(C)C(=O)OC)C1CCO (stereo partly specified)		49.2 µM		30.6		32.5 µM		29.4 µM				17.8				36.6 µM		26.9		34.1
O=C1c2ccccc2CC1C1(O)C(=O)Nc2ccccc21 (stereo unspecified)		> 100 µM		> 100		> 100 µM		> 100 µM				> 100		> 100		> 100 µM		> 100		> 100
C=CC1C(OC2OC(CO)C(O)C(O)C2O)OC=C(C(=O)OC)C1CC=O (stereo unspecified)		> 100 µM		> 100		> 100 µM		> 100 µM						> 100		> 100 µM		> 100		
CC(=O)O[C@H]1CC[C@@]2(C)[C@@H](CC[C@@H]3[C@@H]2CC[C@]2(C)C=C(C=O)C[C@@H]32)C1	19.5	37.3 µM	94.6	> 100	25.8	> 100 µM	20.2	60.8 µM			8.32	25.6	1.75	3.54	7.53	23.1 µM	3.42	10.7		

SMILES	GI50 (786-0 renal) [µM]	TGI (786-0 renal)	GI50 (A498 renal) [µM]	TGI (A498 renal) [µM]	GI50 (A549 NSCLC) [µM]	TGI (A549 NSCLC)	GI50 (ACHN renal) [µM]	TGI (ACHN renal)	GI50 (HCC-2998 colon) [µM]	TGI (HCC-2998 colon)	GI50 (HT29 colon) [µM]	TGI (HT29 colon) [µM]	GI50 (LOX IMVI melanoma) [µM]	TGI (LOX IMVI melanoma) [µM]	GI50 (SK-MEL-2 melanoma) [µM]	TGI (SK-MEL-2 melanoma)	GI50 (SW-620 colon) [µM]	TGI (SW-620 colon) [µM]	GI50 (TK-10 renal) [µM]	TGI (TK-10 renal) [µM]
C1CCOC2(CCC3(CC2)OCCCCO3)OC1		> 100 µM		> 100		> 100 µM		> 100 µM		> 100 µM						> 100 µM		> 100		> 100
CCC(/C=C/c1ccccc1)=N\Nc1ccc(Cl)c(Cl)c1		> 100 µM				> 100 µM		76.9 µM		65 µM		> 100		> 100		40.9 µM		> 100		> 100
Cc1cn2c(/C=N/Nc3ccccn3)c(-c3ccc(Cl)c([N+](=O)[O-])c3)nc2s1	18.5	> 50 µM			8.7	21.9 µM	6.89	15.5 µM	> 50	> 50 µM			8.03	16.5	21.2	> 50 µM	44.1	> 50	15.3	47.3
CC#CC1C(OC(=O)c2ccccc2)CCCC1(CI)N=[N+]=[N-] (stereo unspecified)		> 100 µM		> 100		> 100 µM		> 100 µM		> 100 µM		> 100				> 100 µM		> 100		> 100
CC(=O)NC1CC2Oc3ccc(C)cc3C(C)(O2)C1O (stereo unspecified)		> 100 µM				> 100 µM		> 100 µM				> 100		> 100		> 100 µM		> 100		> 100
N=C(N)c1ccc(COc2ccccc2OCc2ccc(C(=N)N)cc2)cc1	29.8	> 100 µM			57.5	> 100 µM	> 100	> 100 µM	86.8	> 100 µM	47	> 100			> 100	> 100 µM	43.5	> 100	34.3	> 100
CCOC(=O)c1nc(-c2ccccc2)oc1OCC		> 100 µM				> 100 µM				> 100 µM		> 100		> 100				> 100		> 100
CCOc1ccccc1/C=N\N=C(\N)N/N=C/c1ccccc1OCC	4.42	> 100 µM	2.42	> 100	4.25	> 100 µM	3.82	> 100 µM			2.5	> 100	4.68	> 100	1.26	> 100 µM	2.46	> 100	6.16	> 100
CC(C)C[C@H](NC(=O)[C@@H](O)[C@H](N)Cc1ccc([N+](=O)[O-])cc1)C(=O)O	> 25	> 25 µM			> 25	> 25 µM	> 25	> 25 µM	> 25	> 25 µM	> 25	> 25	> 25	> 25	> 25	> 25 µM	> 25	> 25	> 25	> 25
S=C(Nc1cc(Cl)c(Cl)cc1Cl)SCc1ccccc1		> 100 µM		82.5		> 100 µM		42.7 µM				43.7				> 100 µM		> 100		53.8
C[C@@H](NC1CCC[C@H]1O)c1ccccc1 (stereo partly specified)		> 100 µM				> 100 µM		> 100 µM		> 100 µM		> 100		> 100		> 100 µM		> 100		> 100
CCCOc1nc(SCCC)nc2c1cnn2-c1ccccc1	> 100	> 100 µM	> 100	> 100	> 100	> 100 µM	> 100	> 100 µM	> 100	> 100 µM			> 100	> 100			> 100	> 100		
CCN(CC)CC(C(=O)Nc1c(C)cccc1C)/C(C)=N\NC(=O)c1ccncc1 (stereo unspecified)		> 100 µM		> 100		> 100 µM		> 100 µM		> 100 µM		> 100		> 100		> 100 µM				> 100
C/C=C/C=C/CCCCCCCCCCCCCC1(OC)C=CC(CC(=O)OC)OO1 (stereo unspecified)	1.75	3.51 µM			5.57	19.7 µM	6	16.7 µM	3.5	9.99 µM	1.82	3.43	2.02	3.9		39 µM	1.99	4.34	2.26	4.81
CN(C)c1ccc(C(=C2C=CC(=[N+](C)C)C=C2)c2ccc(N(C)C)cc2)cc1	0.187	0.709 µM and 1.17 µM	0.145	0.622		1.2 µM and 2.48 µM	0.253	1.17 µM and 1.01 µM	0.194	1.17 µM and 0.934 µM	0.0363	0.158				0.472 µM and 0.482 µM	0.0693	1.23	0.162	0.864
CCN(CC)c1ccc(C(=N)c2ccc(N(C)C)cc2)cc1	1.71	4.45 µM	1.17	6.32	1.62	11.4 µM	2.34	12 µM	1.85	5.69 µM	0.0399	4.02	1.21	7.22			0.174	5.63	2.41	8.02
N#Cc1cc([N+](=O)[O-])ccc1NC(=O)/C(=N/N)C(C(=O)c1ccc(Cl)c(Cl)c1)C1OC(=O)c2ccccc21 (stereo unspecified)		> 100 µM		> 100		> 100 µM		> 100 µM		> 100 µM		> 100		> 100		> 100 µM		> 100		
CC(=O)Nc1ccc(/C=C/C(=O)c2sc(-c3nc(C)c(C(=O)/C=C/c4ccc(NC(C)=O)cc4)s3)nc2C)cc1		> 100 µM				> 100 µM		> 100 µM		> 100 µM		> 100		> 100		> 100 µM		> 100		> 100
